Values of other authors in patent publication US20170313932A1, “SYNTHETIC ACID COMPOSITIONS ALTERNATIVES TO CONVENTIONAL ACIDS IN THE OIL AND GAS INDUSTRY” (FLUID ENERGY GROUP LTD., priority 2014, published 2017).

Tested on: Life and Health

Question: With `Cl` [Hydrogen chloride gas, Hydrogen chloride] as the compound, how does the “Level Immediately Dangerous to Life and Health (IDHL)” value read?
Answer: above 50 PPM

Question: And the “Level at which death can occur” value (gas exposure, death in 2-3 minutes)?
Answer: 1300-2000 parts per million (PPM)
